Laboratory results from patent US20080004266A1, “Method for treating proliferative disorders associated with protooncogene products” (priority 2006, published 2008).

Key:
[1] = test system: EGFR (T790M and L858R mutations); assay: Degradation of EGFR in NCI-H1975 cells (Western blot); format: cell-based, human; settings: 18 hours, 1.0 μM, 0.5 μM and 0.1 μM
Description: Non-small cell lung cancer cell line, NCI-H1975 (2×10^6 cells), which harbors both the T790M and the L858R mutations in EGFR and is resistant to erlotinib, was obtained from American Type Culture Collection and was treated with either Compound 226 (1.0 μM, 0.5 μM and 0.1 μM) or 17-AAG (1.0 μM, 0.5 μM and 0.1 μM). After 18 hours, the cells were lysed with 1× lysis buffer and a western blot was perform, and phosphorylated and total EGFR was detected with anti-EGFR antibodies.

V600E mutant B-raf = assay: Degradation of B-raf in A375 melanoma cells (Western blot); format: cell-based, human; settings: 18 hours, at 0.5 mM and 0.1 mM (so in the source)
Description: […] After 18 hours, the cells were lysed with 1× lysis buffer and a western blot was perform, and B-raf was detected with anti-B-raf antibody.

phosphorylated Bcr-Abl = assay: Degradation of Bcr-Abl in KU812 cells (Western blot); format: cell-based; settings: 18 hours
Description: KU812 chronic myeloid leukemia cells (ATCC) (2×10^6 cells), which harbor the Philadelphia chromosome that produces Bcr-Abl tyrosine kinase, were treated (0.1 μM and 1.0 μM) with either Compound 226, 17-AAG or 17-DMAG. After 18 hours, the cells were lysed with 1× lysis buffer, and a western blot was perform using anti-BCR-ABL antibody to detect phosphorylated Bcr-Abl.

MV 4-11 cells (FLT3-ITD) = assay: Cell survival in MV-4-11 cells (Cell Counting Kit-8); format: cell-based, human; settings: Homo sapiens, MV4-11, 72 hours
Description: Human acute myelogenous leukemia (AML) cell line, MV 4-11 (ATCC #CRL-9591), was obtained from the American Type Culture Collection (ATCC; Manassas, Va., USA). Growth of this tumor cell line is dependent upon the expression of an activated form of the FLT3 tyrosine kinase receptor carrying an internal tandem duplication (ITD) mutation, which is the most common molecular defect associated with AML (K. W. Yee et al., Blood 100:2941-2949, 2002). MV 4-11 cells (20,000 cells/well) were cultured in 96-well plates and maintained at 37° C. for several hours. The cells were incubated at 37° C. for 72 hours with various concentrations of compounds of the invention, 17AAG, or DMAG. 17AAG and DMAG are Hsp90 inhibitors that are currently in clinical trials and are used here as positive controls for Hsp90 inhibition. Cell survival was measured with Cell Counting Kit-8 (Dojindo Laboratories, Cat # CK04).

[2] = test system: Kasumi-1 cells (c-Kit N822K); assay: Cell survival in Kasumi-1 cells (Cell Counting Kit-8); format: cell-based, human; settings: Homo sapiens, 72 hours
Description: Kasumi-1 cells (20,000 cells/well) were cultured in 96-well plates and maintained at 37° C. for several hours. […] 17AAG and DMAG are Hsp90 inhibitors that are currently in clinical trials and are used here as positive controls for Hsp90 inhibition. […] Cell survival was measured with Cell Counting Kit-8 (Dojindo Laboratories, Cat # CK04).

[3] = test system: NCI-H1975 cells (EGFR T790M and L858R); assay: Cell survival in NCI-H1975 cells (Cell Counting Kit-8); format: cell-based, human; settings: Homo sapiens, 72 hours
Description: Human lung cancer cell line NCI-H1975 which harbors both the T790M and the L858R mutations in EGFR was obtained from American Type Culture Collection. NCI-H1975 (10,000 cells/well) were cultured in 96-well plates and maintained at 37° C. for several hours. The cells were incubated at 37° C. for 72 hours with various concentrations of compound 226 of the invention, 17AAG or DMAG. 17AAG and DMAG are Hsp90 inhibitors that are currently in clinical trials and are used here as positive controls for Hsp90 inhibition. Cell survival was measured with Cell Counting Kit-8 (Dojindo Laboratories, Cat # CK04).

A375 cells (B-raf V600E) = assay: Cell survival in A375 melanoma cells (Cell Counting Kit-8); format: cell-based, human; settings: Homo sapiens, A-375, 72 hours
Description: Human melanoma cell line, A375 (2×10^6 cells), which contains the V600E mutation in the B-raf protein that confers constitutive […] kinase activity, was obtained from American Type Culture Collection. A375 cells (20,000 cells/well) were cultured in 96-well plates and maintained at 37° C. for several hours. The cells were incubated at 37° C. for 72 hours with various concentrations of compound 226, 17AAG or 17DMAG. 17AAG and 17DMAG are Hsp90 inhibitors that are currently in clinical trials and are used here as positive controls for Hsp90 inhibition. Cell survival was measured with Cell Counting Kit-8 (Dojindo Laboratories, Cat # CK04).

K562 cells (Bcr-Abl) = assay: Cell survival in K562 cells (Cell Counting Kit-8); format: cell-based, human; settings: Homo sapiens, 72 hours
Description: Growth of this tumor cell line is dependent upon the expression of the Bcr-Abl fusion protein (C. Gambacarti-Passerini et al., Blood Cells Mol. Dis. 23:380-394, 1997). K562 cells (20,000 cells/well) were cultured in 96-well plates and maintained at 37° C. for several hours. […] 17AAG, DMAG, and Radicical are Hsp90 inhibitors that are currently in clinical trials and are used here as positive controls for Hsp90 inhibition. […] Cell survival was measured with Cell Counting Kit-8 (Dojindo Laboratories, Cat # CK04).

[4] = test system: Karpas-299 cells (NPM-ALK); assay: Cell survival in Karpas-299 cells (Cell Counting Kit-8); format: cell-based, human; settings: Homo sapiens, 72 hours
Description: Growth of this tumor cell line is dependent upon the expression of the NPM-ALK fusion protein. Karpas-299 cells (20,000 cells/well) were cultured in 96-well plates and maintained at 37° C. for several hours. The cells were incubated at 37° C. for 72 hours with various concentrations of compound 226 of the invention, 17AAG, and 17DMAG. 17AAG and 17DMAG are Hsp90 inhibitors that are currently in clinical trials and are used here as positive controls for Hsp90 inhibition. Cell survival was measured with Cell Counting Kit-8 (Dojindo Laboratories, Cat # CK04).

## CC(C)c1cc(-c2nnc(O)n2-c2ccc3c(ccn3C)c2)c(O)cc1O [Compound 226, 3-(2,4-di-hydroxy-5-isopropyl-phenyl)-4-(1-methyl-indol-5-yl)-5-hydroxy-[1,2,4] triazole]
[1]
  degradation of phosphorylated and total EGFR: induced degradation phosphorylated and total EGFR more potently than 17AAG
V600E mutant B-raf
  degradation of V600E mutant B-raf: induced degradation
Phosphorylated Bcr-Abl; 0.1 μM
  degradation of phosphorylated Bcr-Abl: complete degradation
Phosphorylated Bcr-Abl; 1.0 μM
  degradation of phosphorylated Bcr-Abl: complete degradation
MV 4-11 cells (FLT3-ITD)
  IC50: < 4 nM
[2]
  IC50: 4 nM
[3]
  IC50: 16 nM
A375 cells (B-raf V600E)
  IC50: 4 nM
K562 cells (Bcr-Abl)
  IC50: 14 nM
[4]
  IC50: 10 nM
